Source: publication PMC6452685, “Lysyl-tRNA synthetase as a drug target in malaria and cryptosporidiosis” (Proceedings of the National Academy of Sciences of the …, 2019)
Where two headings read alike, the source gives them in different places.

Assays:
HsKRS [1] = target: T1, HsKRS (Homo sapiens, UniProt Q15046); assay: Recombinant KRS thermal shift assay, HsKRS; assay type: binding; conditions: 40 µM inhibitor
T1 construct: HsKRS (full-length) proteins; 6xHis (N); made in house; host or cells: E. coli Rosetta BL21(DE3), vector pAVA0421 (UW); template pET28a-KRS
T1 sequence (Q15046 whole entry): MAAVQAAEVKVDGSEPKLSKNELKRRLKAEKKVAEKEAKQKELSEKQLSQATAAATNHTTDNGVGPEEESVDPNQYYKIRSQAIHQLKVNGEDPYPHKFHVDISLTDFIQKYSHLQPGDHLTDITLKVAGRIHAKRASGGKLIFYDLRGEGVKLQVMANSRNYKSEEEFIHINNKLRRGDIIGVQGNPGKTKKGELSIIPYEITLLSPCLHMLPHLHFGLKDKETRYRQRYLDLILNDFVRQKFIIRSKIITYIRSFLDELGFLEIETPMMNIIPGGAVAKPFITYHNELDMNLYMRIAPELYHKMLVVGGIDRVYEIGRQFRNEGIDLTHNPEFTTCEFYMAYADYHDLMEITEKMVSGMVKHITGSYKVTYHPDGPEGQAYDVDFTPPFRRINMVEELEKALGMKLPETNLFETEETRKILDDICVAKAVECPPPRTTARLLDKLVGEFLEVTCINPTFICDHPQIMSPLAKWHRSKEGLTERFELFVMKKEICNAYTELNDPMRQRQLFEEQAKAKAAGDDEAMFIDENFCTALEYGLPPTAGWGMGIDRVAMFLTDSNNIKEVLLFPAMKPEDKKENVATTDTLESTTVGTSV
Experimental: 2.9 Recombin ant KR S thermal shift assays ( UW)
Recombi nant PfKRS1, CpKRS, and HsKRS were di l u ted to 4 µM in assay buffe r c ontaining 20 mM Tris-HC l pH 8, 200 mM NaC l , 5 mM DTT, 5 mM MgC l2 and l i gands (1 mM lysi ne; 40 µM ATP; and 40 µM inhibitors) in various combinations. Ali quot s (10 µl) were added to a 96-well PCR plate and incubated at ambi ent temperature for 15 mi n. SYPRO® Ora n g e dye (I nv itrog en) was di l uted i n ass ay buffer to a 5x concent rat i on a nd 1 0 µl was added to t he P C R pl at e t o bri ng t he fi nal as s ay v ol ume t o 20 µl. The pl at e w as s eal ed and pul s e cent ri fug ed t o cons ol i dat e t he as s ay mix t ure and remov e ai r bu bbl es .
Us i ng a StepOne Pl us RT-PCR thermal cycler (Ap plied Biosystems) to monitor fluorescence at a n excitation/emission wavelength of 300/470-570 nm, the samples were heated from 25° C to 99° C at a ramp rate of .016° C/sec. Graphpa d® P rism software (GraphPad S oftware, San Diego, CA) was used to determine melting temperatures (Tm) us i ng Bol tzmann s i g moi dal analys is .
Table S3. Thermal shift data for compounds with P fKRS1, Cp KRS a nd Hs KRS.
Com poun d Eff ects o n Lys R S M elti ng Tem pe ratu re ( ∆Tm) […]

PfKRS1 = PfKRS1 (Plasmodium falciparum, UniProt Q8IDJ8); assay: PfKRS1 SAR assay, luciferase ATP consumption (Kinase-Glo); assay type: biochemical; parameters: recombinant PfKRS1 (77–583 and 80–583); 6xHis (N); made in house; host or cells: E. coli Rosetta BL21(DE3), vector pAVA0421; conditions: for IC50: Kinase-Glo assay
Sequence of PfKRS1 (Q8IDJ8 77-583): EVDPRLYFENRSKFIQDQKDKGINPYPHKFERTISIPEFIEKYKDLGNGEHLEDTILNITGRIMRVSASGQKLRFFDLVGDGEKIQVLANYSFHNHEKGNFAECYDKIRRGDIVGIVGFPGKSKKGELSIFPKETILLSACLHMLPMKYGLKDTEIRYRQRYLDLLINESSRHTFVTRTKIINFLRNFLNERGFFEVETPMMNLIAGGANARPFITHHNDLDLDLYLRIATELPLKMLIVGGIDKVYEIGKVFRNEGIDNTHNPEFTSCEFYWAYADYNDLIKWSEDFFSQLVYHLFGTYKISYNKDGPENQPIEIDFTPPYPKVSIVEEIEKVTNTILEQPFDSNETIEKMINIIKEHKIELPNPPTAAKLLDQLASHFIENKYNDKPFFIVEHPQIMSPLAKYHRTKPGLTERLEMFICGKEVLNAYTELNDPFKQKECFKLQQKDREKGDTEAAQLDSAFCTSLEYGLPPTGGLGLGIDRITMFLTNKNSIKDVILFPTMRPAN
Experimental: (§1) We produced recombinant PfKRS1 (77–583 and 80–583), CpKRS (46-end), and HsKRS (full-length) proteins and developed biochemical assays based on the luciferase ATP consumption assay (Kinase-Glo; Promega) ([16]), which was suitable for the high-throughput screening, and the pyrophosphate generation assay (EnzChek) ([17]) format for kinetic characterization of the enzymes. The activities of recombinant enzymes were analyzed by monitoring only the first stage of the aminoacylation reaction. This reaction is suitable for high-throughput screening campaigns and makes the reaction more amenable for steady-state kinetic studies. By using the EnzChek assay, which monitors the production of pyrophosphate (when coupled with pyrophosphatase), Km values were obtained for PfKRS1, CpKRS, and HsKRS for ATP and L-lysine (Table 1 and SI Appendix, Fig. S1 and Table S1). […] This may be due to structural differences (see below) between the active sites of the parasite and human enzymes. […]
(§2) 2.7 PfKR S1, CpKRS and HsKR S S AR Ass ay Usin g L ucife r ase ATP C onsumption ( Kinase Glo ®) Inhi bi ti on of KRS acti vity by cl adospori n and other compou nds was assayed i n t he buffered me di um.
(§3) Each as s ay w el l was compos ed of b uffer (as des cri bed i n Ta bl e S3), 10 µM l ysi ne and ei ther 8.1 nM PfKRS1, 8.1 nM CpKRS or 6.6 nM HsKRS. […] The react i on w a s initiated by the addition of 2 µM ATP. The plate was incubated with shaking at 90 rpm and 30°C for 120 mi n. […] Maximum and minimum signal controls were included in each reaction plate. […] Analysis and calculation of inhibitors IC50 values were performed using Graphpad® Prism software (GraphPad S oftware, San Diego, CA). […]

[2] = tested on: Nanoluciferase-expressing C. parvum; assay: Inhibition of Nanoluciferase expressing C. parvum growth in HCT-8 cells; assay type: cell-based, Cryptosporidium parvum; conditions: read-out: Nluc Cp EC50
Experimental: […] ( UW ) Inhibition of C. parvum growth and EC50 det erm i nat i ons w ere perf ormed w i t h a Na nol uci feras e-expressing C. parvum parasi t e i n HC T-8 cel l s. Oocys ts were propag ated i n cal v es (Cryptosporidium Producti on La borato ry, School o f Ani mal and Comparati ve Bi omedi cal Sci ences, Universi ty of Ari zona) and i sol ated from stool s by sucrose suspensi on and cesi um chl ori de gradi ent. HCT-8 cel ls were seeded to a 384-well plate and allowed to grow for 72 h to reach 90-100% confluence at 37 °C in 5% CO2. Oocysts were activated by 10-15 mi n i ncubat i on i n 10% bl each (0. 6% s odi um hy pochl o ri t e) at room temperature and then washed wi th DPBS. 2000 oocysts per wel l were appl ied to 384-well pl at es wi t h RPM I-1640 medi um s up pl ement ed w i th 10% ho rs e s erum and 1% pe ni ci l li n/s t rept omy ci n at the same time as compound addition. The compound and the oocysts were left in place for the full 72 h g row t h t i me. The amount of l uci feras e-induced light emission was determined by lysing the cell monol ayer, addi ng Nan o-Glo® luciferase reagent (Promega, Madison, W I , USA), and readi ng o n a n EnVi s i on M ul t il abe l Pl at e Re ade r (P e rk i n El me r, Wal t ham, M A, USA). C ont rol s i ncl ude d i nfe ct e d w e lls with no addition of inhibitors and the background was taken as wells where no C. parvum was adde d.
The per cent ag e of g row t h versus infected ce lls with no inhibitor was calculated for each concentrati on of BKI an d the hal f maxi mal effecti ve concentrati on (EC50) v al ues were determi ned by a si gmoi dal dose response wi th vari abl e sl ope usi ng GraphPad Pri sm versi on 6.07 (GraphPa d Software, La Jol l a, Cal i forni a, USA). […]

HsKRS [3] = target: T1, HsKRS; assay: HsKRS SAR assay, luciferase ATP consumption (Kinase-Glo); assay type: biochemical
Experimental: as §1, §2, §3

[4] = Cryptosporidium parvum, HCT-8, C. parvum growth in HCT-8 cells

Row | Structure (SMILES) | ΔTm at 40 µM (HsKRS [1]; ATP + Lysine) [°C] | ΔTm at 40 µM (HsKRS [1]; ATP) [°C] | ΔTm at 40 µM (HsKRS [1]; Lysine) [°C] | ΔTm at 40 µM (HsKRS [1]; no substrate) [°C] | IC50 (PfKRS1) [µM] | EC50 ([2]; C. parvum growth in HCT-8 cells) [µM] | EC50 [2, 4] [µM] | IC50 (HsKRS [3]) [µM] | selectivity ratio for HsKRS/PfKRS1 (PfKRS1; in Kinase-Glo) [fold]
1 | C[C@H]1CCC[C@H](C[C@H]2Cc3cc(O)cc(O)c3C(=O)O2)O1 [Compound 1, cladosporin, reference compound] | -8.2 | 0.3 | -9.2 | -0.1 | 0.004 | 0.67 | 0.7 | > 2 | –
2 | O=C(NCC1(O)CCCCC1)c1cc(=O)c2cc(F)ccc2o1 [Compound 4] | -7.2 | -0.1 | -7.4 | -0.5 | 0.005 | – | 0.14 | 0.74 | –
3 | O=C(NCC1CCCCC1)c1cc(=O)c2cc(F)ccc2o1 [Compound 3] | -10.8 | 0.4 | -8.4 | -0.1 | 0.014 | – | 0.81 | > 2 | –
4 | O=C(NCC1(O)CCC(F)(F)CC1)c1cc(=O)c2cc(F)ccc2o1 [Compound 5] | -7.4 | 0.4 | -7.6 | 0.3 | 0.015 | – | 2.5 | 1.8 | 120
5 | O=C(NCC1CCCCC1)c1cc(=O)c2ccccc2o1 [Compound 2] | -8.6 | 0.3 | -10 | -0.3 | 0.004 | – | 1.2 | > 2 | –
